Measurements as given in ChEMBL document CHEMBL1149599, “Design, syntheses, and antitumor activity of novel chromone and aurone derivatives” (Bioorg Med Chem, 2007).

What was measured:
[1] = Antiproliferative activity against human HCCLM7 cells after 72 hrs by MTT method; type: functional, cell-based; settings: HCCLM7, 72 h
[2] = system: HEp-2; assay: Antiproliferative activity against human Hep2 cells after 72 hrs by MTT method; type: functional, cell-based; settings: HEp-2, 72 h
[3] = cells; type: functional, cell-based; settings: Homo sapiens, MDA-MB-435S, 72 h
Description: Antiproliferative activity against human MDA-MB-435S cells after 72 hrs by MTT method

[4] = system: SW480; assay: Antiproliferative activity against human SW480 cells after 72 hrs by MTT method; type: functional, cell-based; settings: SW480, 72 h
[5] = system: HEp-2; assay: Cell cycle arrest in Hep2 cells assessed as accumulation at subG0 phase at 4.7 uM after 24 hrs; type: functional, Homo sapiens
[6] = system: HEp-2; assay: Cell cycle arrest in Hep2 cells assessed as accumulation at G0/G1 phase at 4.7 uM after 24 hrs; type: functional, Homo sapiens
[7] = system: HEp-2; assay: Cell cycle arrest in Hep2 cells assessed as accumulation at S phase at 4.7 uM after 24 hrs; type: functional, Homo sapiens
[8] = system: HEp-2; assay: Cell cycle arrest in Hep2 cells assessed as accumulation at G2/M phase at 4.7 uM after 24 hrs; type: functional, Homo sapiens
[9] = system: HEp-2; assay: Cell cycle arrest in Hep2 cells assessed as accumulation at subG0 phase at 4.7 uM after 36 hrs; type: functional, Homo sapiens
[10] = system: HEp-2; assay: Cell cycle arrest in Hep2 cells assessed as accumulation at G0/G1 phase at 4.7 uM after 36 hrs; type: functional, Homo sapiens
[11] = system: HEp-2; assay: Cell cycle arrest in Hep2 cells assessed as accumulation at S phase at 4.7 uM after 36 hrs; type: functional, Homo sapiens
[12] = system: HEp-2; assay: Cell cycle arrest in Hep2 cells assessed as accumulation at G2/M phase at 4.7 uM after 36 hrs; type: functional, Homo sapiens
[13] = system: HEp-2; assay: Cell cycle arrest in Hep2 cells assessed as accumulation at subG0 phase at 4.7 uM after 48 hrs; type: functional, Homo sapiens
[14] = system: HEp-2; assay: Cell cycle arrest in Hep2 cells assessed as accumulation at G0/G1 phase at 4.7 uM after 48 hrs; type: functional, Homo sapiens
[15] = system: HEp-2; assay: Cell cycle arrest in Hep2 cells assessed as accumulation at S phase at 4.7 uM after 48 hrs; type: functional, Homo sapiens
[16] = system: HEp-2; assay: Cell cycle arrest in Hep2 cells assessed as accumulation at G2/M phase at 4.7 uM after 48 hrs; type: functional, cell-based, Homo sapiens
[17] = system: HEp-2; assay: Cell cycle arrest in Hep2 cells assessed as accumulation at subG0 phase at 5.7 uM after 24 hrs; type: functional, Homo sapiens
[18] = system: HEp-2; assay: Cell cycle arrest in Hep2 cells assessed as accumulation at G0/G1 phase at 5.7 uM after 24 hrs; type: functional, Homo sapiens
[19] = system: HEp-2; assay: Cell cycle arrest in Hep2 cells assessed as accumulation at S phase at 5.7 uM after 24 hrs; type: functional, Homo sapiens
[20] = system: HEp-2; assay: Cell cycle arrest in Hep2 cells assessed as accumulation at G2/M phase at 5.7 uM after 24 hrs; type: functional, Homo sapiens
[21] = system: HEp-2; assay: Cell cycle arrest in Hep2 cells assessed as accumulation at subG0 phase at 5.7 uM after 36 hrs; type: functional, Homo sapiens
[22] = system: HEp-2; assay: Cell cycle arrest in Hep2 cells assessed as accumulation at G0/G1 phase at 5.7 uM after 36 hrs; type: functional, Homo sapiens
[23] = system: HEp-2; assay: Cell cycle arrest in Hep2 cells assessed as accumulation at S phase at 5.7 uM after 36 hrs; type: functional, Homo sapiens
[24] = system: HEp-2; assay: Cell cycle arrest in Hep2 cells assessed as accumulation at […] phase at 5.7 uM after 36 hrs; type: functional, Homo sapiens
[25] = system: HEp-2; assay: Cell cycle arrest in Hep2 cells assessed as accumulation at subG0 phase at 5.7 uM after 48 hrs; type: functional, Homo sapiens
[26] = system: HEp-2; assay: Cell cycle arrest in Hep2 cells assessed as accumulation at G0/G1 phase at 5.7 uM after 48 hrs; type: functional, Homo sapiens
[27] = system: HEp-2; assay: Cell cycle arrest in Hep2 cells assessed as accumulation at S phase at 5.7 uM after 48 hrs; type: functional, Homo sapiens
[28] = system: HEp-2; assay: Cell cycle arrest in Hep2 cells assessed as accumulation at […] phase at 5.7 uM after 48 hrs; type: functional, Homo sapiens

SMILES | IC50 [1] [µM] | IC50 [2] [µM] | IC50 [3] [µM] | IC50 [4] [µM] | also measured
Nc1nnc(Sc2coc3ccccc3c2=O)s1 | > 50 | 47.7 | > 50 | > 50 | 
O=C1/C(=C/N2CCN(c3ccccc3)CC2)Oc2ccccc21 | 45.1 | 27.7 | 25.1 | 36.4 | 
CN1CCN(/C=C2\Oc3ccccc3C2=O)CC1 | > 50 | > 50 | 40.3 | > 50 | 
CN1CCN(/C=C2\Oc3ccccc3C2=O)C(c2ccccc2)C1 (stereo not given) | > 50 | > 50 | > 50 | > 50 | 
Cc1cc(C)nc(Sc2coc3ccccc3c2=O)n1 | > 50 | > 50 | > 50 | > 50 | 
O=c1c(Sc2nc3ccccc3[nH]2)coc2ccccc12 | > 50 | 42.6 | 30.3 | > 50 | 
Cc1nnc(Sc2coc3ccccc3c2=O)o1 | > 50 | > 50 | > 50 | > 50 | 
O=c1[nH]cc(F)c(=O)[nH]1 [FLUOROURACIL] | 18.6 | 129 | 14.5 | 8.1 | 
O=c1c(Sc2nc3ccccc3s2)coc2ccccc12 | > 50 | 31.3 | 17.1 | 45.2 | 
O=C1/C(=C/N2CCCCC2)Oc2ccccc21 | > 50 | > 50 | 47.8 | > 50 | 
O=C1/C(=C/N2CCN(CC(c3ccc(F)cc3)c3ccc(F)cc3)CC2)Oc2ccccc21 | 12.1 | 4.7 | 4.1 | 13.1 | Activity [5]: 0%; Activity [6]: 55.9%; Activity [7]: 25.01%; Activity [8]: 19.09%; Activity [9]: 5.55%; Activity [10]: 63.03%; Activity [11]: 18.45%; Activity [12]: 18.52%; Activity [13]: 16.46%; Activity [14]: 73.71%; Activity [15]: 20.89%; Activity [16]: 5.41%
O=C1/C(=C/N2CCN(Cc3ccccc3)CC2)Oc2ccccc21 | 9.6 | 5.7 | 7.6 | 6.6 | Activity [17]: 4.69%; Activity [18]: 44.87%; Activity [19]: 22.98%; Activity [20]: 32.14%; Activity [21]: 4.93%; Activity [22]: 58.7%; Activity [23]: 23.84%; Activity [24]: 17.46%; Activity [25]: 18.2%; Activity [26]: 75.85%; Activity [27]: 17.83%; Activity [28]: 6.32%
O=c1c(Sc2nc3ccccc3o2)coc2ccccc12 | > 50 | 29.6 | 26.1 | 36.4 | 
Cc1nnc(Sc2coc3ccccc3c2=O)s1 | > 50 | 40.2 | > 50 | > 50 | 
